Test results taken from ChEMBL document CHEMBL1909046, “DrugMatrix in vitro pharmacology data”.
Where a SMILES comes first, the peptide text is derived from it. Bridges are numbered along the chain shown (N, C = ends). [ ]: non-standard residue; d: D form. The star is where a group is joined. Ileψ(thiazoline)Cys = CC[C@H](C)[C@H](N)C1=N[C@H](C(=O)*)CS1; dOrn = NCCC[C@@H](N)C(=O)O

How the values were obtained:
[1] = DRUGMATRIX: Sodium/nucleoside co-transporter radioligand binding (ligand: nitrobenzylthioinosine); assay type: cell membranes, Cavia porcellus, Dunkin-Hartley, Cerebral cortex, Membrane; settings: Not Active = under 50% inhibition at 10 µM
[2] = biological target: T1, Alpha-1B adrenergic receptor (Rattus norvegicus, UniProt P15823); assay: DRUGMATRIX: Alpha-1B adrenergic receptor radioligand binding (ligand: prazosin); assay type: cell membranes, Wistar, Liver, Membrane; settings: Not Active = under 50% inhibition at 10 µM
T1 sequence (P15823 whole entry): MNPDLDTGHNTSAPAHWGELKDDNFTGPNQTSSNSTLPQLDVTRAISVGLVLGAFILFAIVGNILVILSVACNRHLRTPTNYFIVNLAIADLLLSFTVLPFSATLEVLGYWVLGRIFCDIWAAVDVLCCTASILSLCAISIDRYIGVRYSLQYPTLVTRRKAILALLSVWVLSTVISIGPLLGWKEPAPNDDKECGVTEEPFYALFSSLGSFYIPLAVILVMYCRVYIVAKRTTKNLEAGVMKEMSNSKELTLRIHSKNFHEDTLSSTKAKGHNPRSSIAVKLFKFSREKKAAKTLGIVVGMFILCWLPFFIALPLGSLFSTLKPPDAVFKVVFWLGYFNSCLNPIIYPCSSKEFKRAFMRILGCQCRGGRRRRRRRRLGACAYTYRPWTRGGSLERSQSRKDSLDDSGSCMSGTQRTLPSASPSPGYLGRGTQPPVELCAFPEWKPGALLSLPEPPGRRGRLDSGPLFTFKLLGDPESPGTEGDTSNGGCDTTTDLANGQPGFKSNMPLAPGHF

[3] = DRUGMATRIX: Calcium Channel Type L, Phenylalkylamine radioligand binding (ligand: [3H] (-)-Desmethoxyverapamil (D-888)); assay type: cell membranes, Rattus norvegicus, Wistar, Brain, Membrane; settings: Not Active = under 50% inhibition at 10 µM
[4] = DRUGMATRIX: Glutamate, AMPA radioligand binding (ligand: [3H] AMPA); assay type: cell membranes, Rattus norvegicus, Wistar, Cerebral cortex, Membrane; settings: Not Active = under 50% inhibition at 10 µM
[5] = DRUGMATRIX: Nicotinic Acetylcholine radioligand binding (ligand: [125I] Epibatidine); assay type: cell membranes, Membrane; settings: imr-32; Not Active = under 50% inhibition at 10 µM
[6] = biological target: T2, Cytochrome P450 2A6 (Homo sapiens, UniProt P11509); settings: bti-tn-5b1-4; also: in other assays of this panel Not Active means under 50% inhibition at 10 µM
T2 sequence (P11509 whole entry): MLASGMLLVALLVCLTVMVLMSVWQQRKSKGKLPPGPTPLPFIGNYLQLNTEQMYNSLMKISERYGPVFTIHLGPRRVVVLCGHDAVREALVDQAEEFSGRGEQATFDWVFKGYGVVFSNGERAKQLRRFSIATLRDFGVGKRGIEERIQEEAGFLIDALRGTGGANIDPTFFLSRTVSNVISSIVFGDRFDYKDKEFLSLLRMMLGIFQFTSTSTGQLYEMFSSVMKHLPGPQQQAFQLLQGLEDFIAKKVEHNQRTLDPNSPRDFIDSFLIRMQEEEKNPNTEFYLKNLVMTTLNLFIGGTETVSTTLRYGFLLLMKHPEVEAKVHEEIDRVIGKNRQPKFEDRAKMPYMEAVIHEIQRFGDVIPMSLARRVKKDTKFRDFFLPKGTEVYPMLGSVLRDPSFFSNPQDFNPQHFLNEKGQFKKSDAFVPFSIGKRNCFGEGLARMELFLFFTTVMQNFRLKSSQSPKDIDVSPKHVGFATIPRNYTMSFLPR

Structure (SMILES) | IC50 [1] | Ki [1] | IC50 [2] | IC50 [3] | Ki [3] | IC50 [4] | Ki [4] | IC50 [5] | Ki [5] | IC50 [6] | Ki [6] | IC50 ([2]; read-out: IC50) | Ki ([2]; read-out: Ki) | IC50 ([3]; read-out: IC50) | Ki ([3]; read-out: Ki)
Cn1cnc([N+](=O)[O-])c1Sc1ncnc2nc[nH]c12 [AZATHIOPRINE] | Not Active | Not Active | Not Active | Not Active | Not Active | Not Active | Not Active | Not Active | Not Active | Not Active | Not Active | – | – | – | –
CC1(C)S[C@@H]2[C@H](NC(=O)[C@H](NC(=O)N3CCNC3=O)c3ccccc3)C(=O)N2[C@H]1C(=O)O [AZLOCILLIN] | Not Active | Not Active | Not Active | Not Active | Not Active | Not Active | Not Active | Not Active | Not Active | Not Active | Not Active | – | – | – | –
CC[C@H](C)[C@H](N)C1=N[C@H](C(=O)N[C@@H](CC(C)C)C(=O)N[C@H](CCC(=O)O)C(=O)N[C@H](C(=O)N[C@H]2CCCCNC(=O)[C@H](CC(N)=O)NC(=O)[C@@H](CC(=O)O)NC(=O)[C@H](Cc3cnc[nH]3)NC(=O)[C@@H](Cc3ccccc3)NC(=O)[C@H]([C@@H](C)CC)NC(=O)[C@@H](CCCN)NC2=O)[C@@H](C)CC)CS1 [BACITRACIN] ({Ileψ(thiazoline)Cys}-L[dE]IK[dOrn]I[dF]H[dD]N; lactam 4-C) | Not Active | Not Active | Not Active | Not Active | Not Active | Not Active | Not Active | Not Active | Not Active | Not Active | Not Active | – | – | – | –
CCOC(=O)c1ccc(N)cc1 [BENZOCAINE] | Not Active | Not Active | Not Active | Not Active | Not Active | Not Active | Not Active | Not Active | Not Active | Not Active | Not Active | – | – | – | –
CC(C)(Oc1ccc(CCNC(=O)c2ccc(Cl)cc2)cc1)C(=O)O [BEZAFIBRATE] | Not Active | Not Active | Not Active | Not Active | Not Active | Not Active | Not Active | Not Active | Not Active | Not Active | Not Active | – | – | – | –
CCCC[C@@H](CC)COC(=O)c1ccccc1C(=O)OC[C@@H](CC)CCCC [BIS(2-ETHYLHEXYL)PHTHALATE] | Not Active | Not Active | Not Active | Not Active | Not Active | Not Active | Not Active | Not Active | Not Active | Not Active | Not Active | – | – | – | –
Oc1c(Cl)cc(Cl)cc1Sc1cc(Cl)cc(Cl)c1O [BITHIONOL] | Not Active | Not Active | Not Active | Not Active | Not Active | Not Active | Not Active | Not Active | Not Active | Not Active | Not Active | – | – | – | –
CCCCOC(=O)c1ccc(N)cc1 [BUTAMBEN] | Not Active | Not Active | Not Active | Not Active | Not Active | Not Active | Not Active | Not Active | Not Active | Not Active | Not Active | – | – | – | –
O=C1CCc2cc(OCCCCc3nnnn3C3CCCCC3)ccc2N1 [CILOSTAZOL] | Not Active | Not Active | Not Active | Not Active | Not Active | Not Active | Not Active | Not Active | Not Active | Not Active | Not Active | – | – | – | –
O=C(O)c1cn(C2CC2)c2cc(N3CCNCC3)c(F)cc2c1=O [CIPROFLOXACIN] | Not Active | Not Active | Not Active | Not Active | Not Active | Not Active | Not Active | Not Active | Not Active | Not Active | Not Active | – | – | – | –
CN(C)CCCC1(c2ccc(F)cc2)OCc2cc(C#N)ccc21 (stereo unspecified) [CITALOPRAM] | Not Active | Not Active | – | – | – | Not Active | Not Active | Not Active | Not Active | Not Active | Not Active | 3290 nM | 1820 nM | 1020 nM | 996 nM
COC(=O)[C@H](c1ccccc1Cl)N1CCc2sccc2C1 [CLOPIDOGREL] | Not Active | Not Active | Not Active | Not Active | Not Active | Not Active | Not Active | Not Active | Not Active | Not Active | Not Active | – | – | – | –
C[C@]12CCC(=O)C=C1CC[C@@H]1[C@@H]2C(=O)C[C@@]2(C)[C@H]1CC[C@]2(O)C(=O)CO [CORTISONE] | Not Active | Not Active | Not Active | Not Active | Not Active | Not Active | Not Active | Not Active | Not Active | Not Active | Not Active | – | – | – | –
CC1=Nc2ccc(Cl)cc2S(=O)(=O)N1 [DIAZOXIDE] | Not Active | Not Active | Not Active | Not Active | Not Active | Not Active | Not Active | Not Active | Not Active | Not Active | Not Active | – | – | – | –
CC(=O)OCC(=O)[C@@]1(OC(C)=O)[C@@H](C)C[C@H]2[C@@H]3C[C@H](F)C4=CC(=O)C=C[C@]4(C)[C@@]3(F)[C@@H](O)C[C@@]21C [DIFLORASONE DIACETATE] | Not Active | Not Active | Not Active | Not Active | Not Active | Not Active | Not Active | Not Active | Not Active | Not Active | Not Active | – | – | – | –
